In brackets after ≈: the same amount, converted by molar mass.
What was measured:
[1] = Inhibition of Escherichia coli FtsZ polymerization expressed in Escherichia coli BL21 assessed as reduction in light scattering intensity in presence of GTP by fluorescence spectrometric analysis
Enterococcus faecalis [2] = assay: Antimicrobial activity against vancomycin-sensitive Enterococcus faecalis after 18 hrs by broth microdilution method; assay type: functional
Escherichia coli [3] = assay: Antibacterial activity against Escherichia coli ATCC 25922 after 18 hrs by broth microdilution method; assay type: functional; conditions: ATCC 25922, 18 h
Klebsiella pneumoniae = assay: Antibacterial activity against Klebsiella pneumoniae ATCC BAA-1144 after 18 hrs by broth microdilution method; assay type: functional; conditions: ATCC BAA-1144, 18 h
Staphylococcus aureus [4] = assay: Antibacterial activity against methicillin-sensitive Staphylococcus aureus after 18 hrs by broth microdilution method; assay type: functional
Staphylococcus aureus [5] = assay: Antibacterial activity against methicillin-resistant Staphylococcus aureus ATCC BAA-41 after 18 hrs by broth microdilution method; assay type: functional; conditions: ATCC BAA-41, 18 h
Escherichia coli [6] = assay: Antibacterial activity against Escherichia coli ATCC 25922 after 18 hrs by broth microdilution assay; assay type: functional; conditions: ATCC 25922, 18 h
[7] = molecular target: T1, Cell division protein FtsZ (Staphylococcus aureus, UniProt P0A031); assay: Inhibition of Staphylococcus aureus ATCC 29213 N-terminal His6-tagged FtsZ GTPase activity expressed in Escherichia coli BL21(DE3) assessed as reduction in inorganic phosphate release preincubated for 10 mins followed by GTP addition after 30 mins
T1 sequence (P0A031 whole entry): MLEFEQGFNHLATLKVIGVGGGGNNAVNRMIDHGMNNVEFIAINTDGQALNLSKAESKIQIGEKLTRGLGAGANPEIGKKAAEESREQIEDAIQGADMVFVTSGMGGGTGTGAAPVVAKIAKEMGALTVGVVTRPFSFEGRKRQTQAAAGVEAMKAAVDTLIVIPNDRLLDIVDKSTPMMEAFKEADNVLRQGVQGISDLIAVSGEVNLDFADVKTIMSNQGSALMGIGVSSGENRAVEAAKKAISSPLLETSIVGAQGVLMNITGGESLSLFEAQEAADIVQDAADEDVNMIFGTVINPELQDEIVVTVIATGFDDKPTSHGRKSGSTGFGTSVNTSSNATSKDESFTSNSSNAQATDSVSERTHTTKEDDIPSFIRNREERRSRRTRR

Staphylococcus aureus [8] = assay: Antibacterial activity against Staphylococcus aureus ATCC 29213 after 18 hrs by broth microdilution assay; assay type: functional; conditions: ATCC 29213, 18 h
[9] = Displacement of mant-GTP from Bacillus subtilis FtsZ by spectrofluorometric assay
[10] = system: Mycobacterium tuberculosis; assay: Antibacterial activity against Mycobacterium tuberculosis W210 clinical isolates measured every 24 hrs for 7 days by MABA assay; assay type: functional
[11] = system: Mycobacterium tuberculosis; assay: Antibacterial activity against Mycobacterium tuberculosis TN587 clinical isolates measured every 24 hrs for 7 days by MABA assay; assay type: functional
[12] = system: Mycobacterium tuberculosis; assay: Antibacterial activity against Mycobacterium tuberculosis H37Rv measured every 24 hrs for 7 days by MABA assay; assay type: functional
[13] = system: Mycobacterium tuberculosis; assay: Antibacterial activity against Mycobacterium tuberculosis NHN382 clinical isolates measured every 24 hrs for 7 days by MABA assay; assay type: functional
Enterococcus faecalis [14] = assay: Antimicrobial activity against vancomycin-resistant Enterococcus faecalis after 18 hrs by broth microdilution method; assay type: functional
[15] = system: Mycobacterium tuberculosis; assay: Antimycobacterial activity against Mycobacterium tuberculosis H37Rv after 2 weeks; assay type: functional; conditions: 336 h
[16] = system: Mycobacterium tuberculosis; assay: In vivo antibacterial activity against Mycobacterium tuberculosis str. Erdman infected in C57BL/6 mouse assessed as reduction in bacterial load in lungs at 50 mg/kg, ip bid on day 5 to 14 post infection measured on day 15 post infection; assay type: functional, Erdman = ATCC 35801
[17] = system: Mycobacterium tuberculosis; assay: Antibacterial activity against Mycobacterium tuberculosis NHN20 clinical isolates measured every 24 hrs for 7 days by MABA assay; assay type: functional
[18] = system: Mycobacterium tuberculosis; assay: In vivo antibacterial activity against Mycobacterium tuberculosis H37Rv infected in GKO-TB mouse assessed as reduction in bacterial load in spleen at 50 mg/kg, ip or po bid for 10 consecutive days; assay type: functional
[19] = molecular target: T1, Cell division protein FtsZ; assay: Inhibition of Staphylococcus aureus N-terminal His6-tagged FtsZ GTPase activity expressed in Escherichia coli BL21(DE3) preincubated for 10 mins followed by GTP addition after 30 mins by cytophos phosphate assay
Bacillus subtilis [20] = assay: Inhibition of Bacillus subtilis FtsZ GTPase activity expressed in Escherichia coli BL21(DE3) pLysS at 24 uM preincubated for 15 mins followed by GTP addition after 10 mins by malachite green ammonium molybdate assay relative to control
Bacillus subtilis [21] = assay: Inhibition of Bacillus subtilis FtsZ polymerization expressed in Escherichia coli BL21(DE3) pLysS at 2 uM preincubated for 15 mins followed by GTP addition by spectrofluorometric analysis relative to control
Bacillus subtilis [22] = assay: Inhibition of Bacillus subtilis FtsZ polymerization expressed in Escherichia coli BL21(DE3) pLysS at 5 uM preincubated for 15 mins followed by GTP addition by spectrofluorometric analysis relative to control
Bacillus subtilis [23] = assay: Inhibition of Bacillus subtilis FtsZ polymerization expressed in Escherichia coli BL21(DE3) pLysS at 10 uM preincubated for 15 mins followed by GTP addition by spectrofluorometric analysis relative to control

Structure (SMILES)	MIC (Enterococcus faecalis [2]) [µg/mL]	MIC (Escherichia coli [3]) [µg/mL]	MIC (Klebsiella pneumoniae) [µg/mL]	MIC (Staphylococcus aureus [4]) [µg/mL]	MIC (Staphylococcus aureus [5]) [µg/mL]	also measured
COc1ccc(/C=C/C(=O)O)cc1OC [O,O'-DIMETHYLCAFFEIC ACID]	4 to 16 (≈ 19.2 to 76.8 µM)	32 to 128 (≈ 154 to 615 µM)	32 to 128 (≈ 154 to 615 µM)	2 to 8 (≈ 9.61 to 38.4 µM)	2 to 8 (≈ 9.61 to 38.4 µM)	IC50 [1]: > 250 µM
CC(C)(C)c1ccc(-c2ncnc3c(CNC(=N)N)cccc23)cc1	–	–	–	–	–	MIC (Escherichia coli [6]): 897 µM (≈ 299 µg/mL); IC50 [7]: 317 µM; MIC (Staphylococcus aureus [8]): 449 µM (≈ 150 µg/mL)
O=C(Oc1cc(OC(=O)c2cccc(O)c2)cc(-c2ccccc2)c1)c1cccc(O)c1	–	–	–	–	–	Kd [9]: 0.5 µM
CCc1ccc(C(=O)Nc2cc3nc(C4CCCCC4)[nH]c3cc2N(C)C)cc1	–	–	–	–	–	MIC99 [10]: 0.16 µg/mL (≈ 0.41 µM); MIC99 [11]: 0.16 µg/mL (≈ 0.41 µM); MIC99 [12]: 0.16 µg/mL (≈ 0.41 µM); MIC99 [13]: 0.16 µg/mL (≈ 0.41 µM)
C=CCc1ccc(O)c(OC)c1 [EUGENOL]	4 to 16 (≈ 24.4 to 97.4 µM)	32 to 128 (≈ 195 to 780 µM)	32 to 128 (≈ 195 to 780 µM)	2 to 8 (≈ 12.2 to 48.7 µM)	2 to 8 (≈ 12.2 to 48.7 µM)	IC50 [1]: > 250 µM; MIC (Enterococcus faecalis [14]): 4 to 16 µg/mL (≈ 24.4 to 97.4 µM)
O=c1ccc2ccc(O)cc2o1 [UMBELLIFERONE]	–	–	–	–	–	MIC [15]: 58 µg/mL (≈ 358 µM)
O=C(O)/C=C/c1ccc(O)c(O)c1 [CAFFEIC ACID]	4 to 16 (≈ 22.2 to 88.8 µM)	32 to 128 (≈ 178 to 710 µM)	32 to 128 (≈ 178 to 710 µM)	2 to 8 (≈ 11.1 to 44.4 µM)	2 to 8 (≈ 11.1 to 44.4 µM)	IC50 [1]: 106 µM
CN(C)c1cc2[nH]c(C3CCCCC3)nc2cc1NC(=O)c1ccc(OC(F)(F)F)cc1F	–	–	–	–	–	MIC99 [10]: 0.47 µg/mL (≈ 1.01 µM); Activity [16]: 5.7 - 6.3 log10CFU; MIC99 [17]: 0.24 µg/mL (≈ 0.517 µM); MIC99 [11]: 0.31 µg/mL (≈ 0.667 µM); Activity [18]: 3.9 - 5 log10CFU; MIC99 [12]: 0.31 µg/mL (≈ 0.667 µM); MIC99 [13]: 0.31 µg/mL (≈ 0.667 µM)
Oc1cc(O)c2c(c1)C/C(Cl)=C\Cc1cc(c(Cl)cc1O)Oc1c(O)cc(cc1O)C/C(Cl)=C\Cc1cc(c(Cl)cc1O)O2	4 to 16 (≈ 5.9 to 23.6 µM)	32 to 128 (≈ 47.2 to 189 µM)	32 to 128 (≈ 47.2 to 189 µM)	2 to 8 (≈ 2.95 to 11.8 µM)	2 to 8 (≈ 2.95 to 11.8 µM)	–
COc1cc2cc3c4cc(-c5ccc(-c6ccccc6)cc5)c(OC)c(OC)c4cc[n+]3c(C(C)C)c2cc1OC	4 to 16	32 to 128	32 to 128	2 to 8	2 to 8	–
COc1cc(OC)c(OC)cc1/C=C/C(=O)O	4 to 16 (≈ 16.8 to 67.2 µM)	32 to 128 (≈ 134 to 537 µM)	32 to 128 (≈ 134 to 537 µM)	2 to 8 (≈ 8.39 to 33.6 µM)	2 to 8 (≈ 8.39 to 33.6 µM)	IC50 [1]: 149 µM
COc1cc(/C=C/C(=O)O)ccc1O [FERULATE]	4 to 16 (≈ 20.6 to 82.4 µM)	32 to 128 (≈ 165 to 659 µM)	32 to 128 (≈ 165 to 659 µM)	2 to 8 (≈ 10.3 to 41.2 µM)	2 to 8 (≈ 10.3 to 41.2 µM)	–
COc1ccc2cc3[n+](cc2c1OCCCOc1ccc(Cl)cc1)CCc1cc2c(cc1-3)OCO2.[Br-]	4 to 16	32 to 128	32 to 128	2 to 8	2 to 8	IC50 [19]: 66.6 µM
CCCCOC(=O)Nc1cc2nc(C3CCCCC3)[nH]c2cc1N1CCCC1	–	–	–	–	–	MIC99 [10]: 0.63 µg/mL (≈ 1.64 µM); MIC99 [11]: 0.16 µg/mL (≈ 0.416 µM); MIC99 [12]: 0.39 µg/mL (≈ 1.01 µM); MIC99 [13]: 0.31 µg/mL (≈ 0.806 µM)
CCC(CC)c1cc([C@H]2CN3CC[C@H]2C[C@@H]3CN)nc(-c2ccncc2)n1	–	–	–	–	–	MIC (Escherichia coli [6]): 49.6 µM (≈ 18.1 µg/mL); IC50 [7]: 37.5 µM; MIC (Staphylococcus aureus [8]): 24.6 µM (≈ 8.99 µg/mL)
CC1=CC(=O)c2c(O)cccc2C1=O [PLUMBAGIN]	4 to 16 (≈ 21.3 to 85 µM)	32 to 128 (≈ 170 to 680 µM)	32 to 128 (≈ 170 to 680 µM)	2 to 8 (≈ 10.6 to 42.5 µM)	2 to 8 (≈ 10.6 to 42.5 µM)	inhibition (Bacillus subtilis [20]): 58%; inhibition (Bacillus subtilis [21]): 26%; inhibition (Bacillus subtilis [22]): 33%; MIC (Enterococcus faecalis [14]): 4 to 16 µg/mL (≈ 21.3 to 85 µM); inhibition (Bacillus subtilis [23]): 45%

— ChEMBL document CHEMBL3865781, “Recent advances in the discovery and development of antibacterial agents targeting the cell-division protein FtsZ” (Bioorg Med Chem, 2016)
